# Experimental data from patent US20260068882A1, “ARTHROPOD CONTROLLING COMPOSITION” (Firmenich SA, priority 2019, published 2026).
# Where two headings read alike, the source gives them in different places.
# Experiments:
# Aedes aegypti [1] = assay: In vivo K&D assay on treated skin of human study participants
# Text: For the K&D in vivo test [Klun J A, Debboun M. A new module for quantitative evaluation of controlling efficacy using human subjects. J Med Entomol. 2000; 37:177-81.], 3 study participants, 2 females and 1 male, showing low or no skin reactions against mosquito bites were recruited at the Swiss Tropical and Public Health Institute (Swiss TPH). […] The study was approved by the Ethics Commission of Northwest and Central Switzerland (Study no. PB_2017-00436-220/11) and all study participants signed an informed consent form. To avoid unwanted bias the participants were asked to avoid alcohol and products such as perfume, eau de cologne and lotions for at least 12 hours before and during the experiments. During the experiments the participants were also asked to avoid rubbing, touching or wetting the arthropod controlling compound-treated area as well as any activity that might lead to increased perspiration.
# In the in vivo assay, a template was used to delineate 4 cm×5 cm areas on the skin that correspond to each of the six cell openings (3 cm×4 cm) on the bottom of the K&D module. Five areas were treated with the different tested stimuli. The module, with five host-seeking, 5- to 10-day-old mosquitoes in each cell, was then positioned over the treated skin area. The number of mosquitoes blood feeding within a 2-minute exposure was recorded. This procedure was repeated until six replicate exposures and observations (i.e. 30 mosquitoes) were made for the three study participants.
# Ixodes ricinus = assay: In vitro Warm Plate Assay for ticks; assay type: in vivo
# Method in brief: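 Repellency against last-stage Ixodes ricinus nymphs in an in vitro warm plate assay, compounds diluted in ethanol at 0.4 and 10 mg/mL, 0.0016% to 1%, or 20% (w/w). Ticks walking down or falling from the treated plate scored as affected, walking up as unaffected; groups of 12 ticks, n=2-5.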
# Aedes aegypti [2] = assay: In vivo arm in cage test on forearm of human volunteers; conditions: for % of repellency MEAN: 20% in ethanol on forearm, three volunteers
# Method: The Arm in the box method was adapted from the WHO Guidelines for efficacy testing of mosquito repellents for human skin (WHO/CDS/NTD/WHOPES/2009.4). The readiness of 100 hungry female mosquitoes A. aegypti to probe is assessed by inserting an untreated arm into the cage (40×40×40 cm) for 30 seconds (negative control) three times (once at the beginning, once at the fourth hour and once at the eighth hour), to determine probing activity.
# Then, the product is applied onto the skin of the forearm of a human volunteer (1 ml per 600 cm^2) and after 5 minutes, this arm is inserted into the cage and exposed for 3 minutes. The assay take place in temperature (27±2° C.) and humidity (80±10% RH) regulated room on three different volunteers.
compound,measurement,setting,value
"Cc1ccc2c(c1)CC(C)(CO)C2 (stereo not drawn) [ingredient #2, (2,5-dimethyl-2,3-dihydro-1H-inden-2yl)methanol]",% repulsion,Aedes aegypti [1]; 0.02% in ethanol on human skin,23.3%
same,% repulsion,Aedes aegypti [1]; 0.1% in ethanol on human skin,27.8%
same,% repulsion,Aedes aegypti [1]; 0.5% in ethanol on human skin,54.4%
same,% repulsion,Aedes aegypti [1]; 2.5% in ethanol on human skin,82.2%
same,% repulsion,Aedes aegypti [1]; 10% in ethanol on human skin,93.3%
same,concentration from which a significant repellent effect is shown,"Aedes aegypti [1]; on its own, in ethanol",≥ 0.5%
same,percentage of ticks being affected,Ixodes ricinus; 0.00032% (Table 9),0%
same,MEAN % affected (ticks),Ixodes ricinus; 0.4 mg/mL in ethanol (Table 5),21%
same,percentage of ticks being affected,Ixodes ricinus; 0.00071% (Table 9),15%
same,percentage of ticks being affected,Ixodes ricinus; 0.0016% (Table 9),17%
same,percentage of ticks being affected,Ixodes ricinus; 0.00357% (Table 9),0%
same,percentage of ticks being affected,Ixodes ricinus; 0.0053% (Table 9),15%
same,percentage of ticks being affected,Ixodes ricinus; 0.008% (Table 9),0%
same,MEAN % affected (ticks),Ixodes ricinus; 10 mg/mL in ethanol (Table 5),92%
same,percentage of ticks being affected,Ixodes ricinus; 0.0119% (Table 9),8%
same,percentage of ticks being affected,Ixodes ricinus; 0.0178% (Table 9),17%
same,percentage of ticks being affected,Ixodes ricinus; 0.0267% (Table 9),38%
same,percentage of ticks being affected,Ixodes ricinus; 0.04% (Table 9),0%
same,percentage of ticks being affected,Ixodes ricinus; 0.0598% (Table 9),31%
same,percentage of ticks being affected,Ixodes ricinus; 0.089% (Table 9),29%
same,percentage of ticks being affected,Ixodes ricinus; 0.2% (Table 9),85%
same,percentage of ticks being affected,Ixodes ricinus; 0.447% (Table 9),100%
same,ticks affected / not affected over 12 (in words),Ixodes ricinus; 1%,only one tick over 12 was not affected
same,percentage of ticks being affected,Ixodes ricinus; 1% (Table 9),71%
same,percentage of ticks affected overtime,"Ixodes ricinus; 20% (w/w) in ethanol, 0.25 h post-application",100%
same,percentage of ticks affected overtime,"Ixodes ricinus; 20% (w/w) in ethanol, 0.5 h post-application",83%
same,percentage of ticks affected overtime,"Ixodes ricinus; 20% (w/w) in ethanol, 1 h post-application",100%
same,percentage of ticks affected overtime,"Ixodes ricinus; 20% (w/w) in ethanol, 2 h post-application",100%
same,percentage of ticks affected overtime,"Ixodes ricinus; 20% (w/w) in ethanol, 4 h post-application",0%
same,percentage of ticks affected overtime,"Ixodes ricinus; 20% (w/w) in ethanol, 6 h post-application",8%
same,ticks' repellency overtime (in words),"Ixodes ricinus; 20% (w/w) in ethanol, Table 14",better ticks' repellency than the known repellent
same,pest or weed control at 0.0016 %,"Ixodes ricinus; Ixodes ricinus, 0.0016% (Table 11), read-out: percentage of ticks affected on the Warm Plate",8%
same,pest or weed control at 0.0016 %,"Ixodes ricinus; Ixodes ricinus, 0.0016% in ethanol (Table 12), read-out: percentage of ticks affected on the Warm Plate",17%
same,pest or weed control at 0.0053 %,"Ixodes ricinus; Ixodes ricinus, 0.0053% in ethanol (Table 12), read-out: percentage of ticks affected on the Warm Plate",15%
same,pest or weed control at 0.008 %,"Ixodes ricinus; Ixodes ricinus, 0.008% in ethanol (Table 12), read-out: percentage of ticks affected on the Warm Plate",0%
same,pest or weed control at 0.0119 %,"Ixodes ricinus; Ixodes ricinus, 0.0119% in ethanol (Table 12), read-out: percentage of ticks affected on the Warm Plate",8%
same,pest or weed control at 0.0178 %,"Ixodes ricinus; Ixodes ricinus, 0.0178% in ethanol (Table 12), read-out: percentage of ticks affected on the Warm Plate",17%
same,pest or weed control at 0.0267 %,"Ixodes ricinus; Ixodes ricinus, 0.0267% in ethanol (Table 12), read-out: percentage of ticks affected on the Warm Plate",38%
same,pest or weed control at 0.04 %,"Ixodes ricinus; Ixodes ricinus, 0.04% (Table 11), read-out: percentage of ticks affected on the Warm Plate",0%
same,pest or weed control at 0.04 %,"Ixodes ricinus; Ixodes ricinus, 0.04% in ethanol (Table 12), read-out: percentage of ticks affected on the Warm Plate",0%
same,pest or weed control at 0.0598 %,"Ixodes ricinus; Ixodes ricinus, 0.0598% in ethanol (Table 12), read-out: percentage of ticks affected on the Warm Plate",31%
same,pest or weed control at 0.089 %,"Ixodes ricinus; Ixodes ricinus, 0.089% in ethanol (Table 12), read-out: percentage of ticks affected on the Warm Plate",29%
same,pest or weed control at 0.2 %,"Ixodes ricinus; Ixodes ricinus, 0.2% in ethanol (Table 12), read-out: percentage of ticks affected on the Warm Plate",85%
same,pest or weed control at 0.447 %,"Ixodes ricinus; Ixodes ricinus, 0.447% in ethanol (Table 12), read-out: percentage of ticks affected on the Warm Plate",100%
same,pest or weed control at 1 %,"Ixodes ricinus; Ixodes ricinus, 1% (Table 11), read-out: percentage of ticks affected on the Warm Plate",92%
same,pest or weed control at 1 %,"Ixodes ricinus; Ixodes ricinus, 1% in ethanol (Table 12), read-out: percentage of ticks affected on the Warm Plate",71%
same,threshold concentration to be efficient to repel the ticks,Ixodes ricinus; Table 9,above 0.2%
same,ticks affected,Ixodes ricinus; dose of 0.89%,29%
same,% of repellency MEAN,Aedes aegypti [2]; 1 h post application,98.83%
same,% of repellency MEAN,Aedes aegypti [2]; 2 h post application,97.79%
same,% of repellency MEAN,Aedes aegypti [2]; 3 h post application,96.72%
same,% of repellency MEAN,Aedes aegypti [2]; 4 h post application,94.71%
same,% of repellency MEAN,Aedes aegypti [2]; 5 h post application,94.05%
same,% of repellency MEAN,Aedes aegypti [2]; 6 h post application,91.99%
same,% of repellency MEAN,Aedes aegypti [2]; 7 h post application,90.91%
same,% of repellency MEAN,Aedes aegypti [2]; 8 h post application,84.67%
same,reduction of the number of mosquitoes landing on the volunteers' arm,"Aedes aegypti [2]; 20% in ethanol, for up to 7 h",more than 90%
